We go through three molecules from patent US20040024178A1, “Bacterial signal peptidase inhibitors and uses thereof” (priority 1999, published 2004).

In one data set the target is E. coli leader peptidase (Escherichia coli, UniProt P00803). Particulars: cited from earlier work.
Another data set deals with T1, Decanoyl-[…]OH.
T1 chain: LTPTAKAASKIDD

A further data set concerns the target T2, Octanoyl-[…]OH.
T2 chain: LTPTAKAASKIDD

Sequence of E. coli leader peptidase (P00803 whole entry): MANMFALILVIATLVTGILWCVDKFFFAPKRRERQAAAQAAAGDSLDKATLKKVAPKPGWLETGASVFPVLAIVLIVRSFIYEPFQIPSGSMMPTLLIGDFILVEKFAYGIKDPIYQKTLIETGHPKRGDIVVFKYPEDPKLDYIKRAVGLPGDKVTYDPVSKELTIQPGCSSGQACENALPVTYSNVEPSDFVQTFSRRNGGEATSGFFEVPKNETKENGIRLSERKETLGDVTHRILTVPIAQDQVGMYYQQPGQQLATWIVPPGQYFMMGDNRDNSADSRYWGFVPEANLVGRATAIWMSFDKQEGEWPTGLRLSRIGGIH

In the case of ASVAVATLVPMLSFAAEGDDPAK, on E. coli leader peptidase (versus parent M13 procoat protein, Dierstein and Wickner), the rate of cleavage result is “comparable to that of the parent”.

In the case of ALAKI, on E. coli leader peptidase (Dev et al), the rate of turnover result is recorded as “very slow”.

B1: S. aureus SpsB signal peptidase (protein)
chain: MKKELLEWIISIAVAFVILFIVGKFIVTPYTIKGESMDPTLKDGERVAVNIIGYKTGGLEKGNVVVFHANKNDDYVKRVIGVPGDKVEYKNDTLYVNGKKQDEPYLNYNLKHKQGDYITGTFQVKDLPNANPKSNVIPKGKYLVLGDNREVSKDSRAFGLIDEDQIVGKVSFRFWPFSEFKHNFNPENTKN
For B1, the “processing after 30 minutes (HPLC/MS cleavage assay)” value in the data set with Decanoyl-[…]OH and with Octanoyl-[…]OH was >80% processing after 30 minutes throughout.
